Experimental data reported in PMC9238401, “Peptide Conjugates Derived from flg15, Pep13, and PIP1 That Are Active against Plant-Pathogenic Bacteria and Trigger Plant Defense Responses” (Applied and Environmental Microbiology, 2022).
Non-standard residues stand in square brackets, D forms with d. Residues, ends and D or L forms follow the SMILES beside them. No end group written: not given here. *: point of attachment. Butyryl = CCCC(=O)*

Key:
[1] = test system: tobacco leaves; assay: Effect of peptide infiltration on tobacco leaves (phytotoxicity); type: in vivo
Protocol: Peptide conjugates were also assayed for their toxicity in tobacco leaves (Fig. 3, Table SC). After 48 h of infiltration, melittin caused a necrotic area of 0.70 and 2.17 cm in diameter at 50 and 250 μM, respectively. The monomers were not phytotoxic at those concentrations; all of them led to lesions of ≤1.2 cm at 250 μM. All peptide conjugates were also less phytotoxic than melittin, causing necrotic lesions between 0.26 and 1.67 cm in diameter at 250 μM. In particular, 15 of the 30 conjugates led to a necrotic area of <1 cm at this concentration. In general, sequences incorporating BP13 were among the most phytotoxic.
Peptide conjugates were evaluated for their effect on infiltration on tobacco leaves as described previously ([41]). Peptide solutions of 50, 150, and 250 μM were infiltrated (100 μL) into the mesophylls of fully expanded tobacco leaves. Infiltrations were carried out in a single leaf, and for each peptide and dose, at least three leaves randomly distributed in different plants were inoculated. Control infiltrations with water (negative control) or melittin (positive control) at the same molar concentration were performed. The appearance of symptoms on the leaves was followed for 48 h after infiltration and measured as lesion diameter.

[2] = test system: Erwinia amylovora PMV6076; assay: In vitro growth inhibition (MIC); type: cell-based; details: TSB, 25°C, 48 h, OD 600 nm (Bioscreen C), three replicates, experiment repeated twice; MIC = lowest concentration with no growth, given as range
Protocol: (§1) Peptide conjugates were tested for in vitro growth inhibition of the plant-pathogenic bacteria E. amylovora PMV6076, Xanthomonas arboricola pv. pruni CFBP5563, X. fragariae Xf349-9A, X. axonopodis pv. vesicatoria 2133-2, P. syringae pv. actinidiae Psa3700.1.1, and P. syringae pv. syringae EPS94 (Fig. 1, Table SA). The corresponding monomers (flg15, BP13, Pep13, PIP1, BP16, BP100, BP143, BP387, BP475, and KSL-W) were included for comparison.
(§2) The following plant-pathogenic bacterial strains were used: Erwinia amylovora PMV6076 (Institut National de la Recherche Agronomique, Angers, France), Pseudomonas syringae pv. syringae EPS94 (Institut de Tecnologia Agroalimentària, University of Girona, Spain), Xanthomonas axonopodis pv. vesicatoria 2133-2, X. axonopodis pv. vesicatoria Xav206 (Xav) (D. F. Ritchie, Department of Plant Pathology, North Carolina State University), Pseudomonas syringae pv. actinidiae Psa3700.1.1, Xanthomonas fragariae Xf349-9A (Instituto Valenciano de Investigaciones Agrarias, Valencia, Spain), and Xanthomonas arboricola pv. pruni CFBP5563 (Collection Française de Bactéries Associées aux Plantes, Angers, France). All bacteria except for X. fragariae were stored in Luria Bertani (LB) broth supplemented with glycerol (20%) and maintained at −80°C. For X. fragariae, medium B ([80]) was used instead of LB. E. amylovora, X. arboricola pv. pruni, P. syringae pv. syringae, and P. syringae pv. actinidiae were scraped from the agar medium after growing for 24 h at 25°C, and X. axonopodis pv. vesicatoria and X. fragariae, after growing for 48 h at 25°C. The cell material was suspended in sterile water to obtain a suspension of 10^8 CFU mL^−1.
(§3) Lyophilized peptides were solubilized in sterile Milli-Q water to a final concentration of 1 mM and filter-sterilized through a 0.22-μm pore filter. […] Then, 20 μL of each dilution were mixed in a microtiter plate well with 20 μL of the corresponding suspension of the bacterial indicator, 160 μL of Trypticase soy broth (TSB) (bioMérieux, France) to a total volume of 200 μL. Three replicates for each combination of strain, compound, and concentration were used. Microbial growth was determined by optical density measurement at 600 nm (Bioscreen C; Labsystem, Helsinki, Finland). Microplates were incubated at 25°C with 20 s of shaking before hourly absorbance measurement for 48 h. The experiment was repeated twice. The MIC was taken as the lowest compound concentration with no growth at the end of the experiment.

[3] = test system: Pseudomonas syringae pv. actinidiae Psa3700.1.1; assay: In vitro growth inhibition (MIC); type: cell-based; details: TSB, 25°C, 48 h, OD 600 nm (Bioscreen C), three replicates, experiment repeated twice; MIC given as range
Protocol: as §1, §2, §3

[4] = test system: Pseudomonas syringae pv. syringae EPS94; assay: In vitro growth inhibition (MIC); type: cell-based; details: TSB, 25°C, 48 h, OD 600 nm (Bioscreen C), three replicates, experiment repeated twice; MIC given as range
Protocol: as §1, §2, §3

[5] = test system: Xanthomonas arboricola pv. pruni CFBP5563; assay: In vitro growth inhibition (MIC); type: cell-based; details: TSB, 25°C, 48 h, OD 600 nm (Bioscreen C), three replicates, experiment repeated twice; MIC given as range
Protocol: as §1, §2, §3

[6] = test system: Xanthomonas fragariae Xf349-9A; assay: In vitro growth inhibition (MIC); type: cell-based; details: TSB, 25°C, 48 h, OD 600 nm (Bioscreen C), three replicates, experiment repeated twice; MIC given as range
Protocol: as §1, §2, §3

[7] = test system: Xanthomonas axonopodis pv. vesicatoria 2133-2; details: TSB, 25°C, 48 h, OD 600 nm (Bioscreen C), three replicates, experiment repeated twice; MIC given as range
Text: The corresponding monomers (flg15, BP13, Pep13, PIP1, BP16, BP100, BP143, BP387, BP475, and KSL-W) were included for comparison.
as §2, §3

[8] = test system: horse erythrocytes; details: TRIS buffer pH 7.2, 1 h, 37°C, absorbance 540 nm, relative to melittin 100 μM, ± confidence interval (α = 0.05)
Protocol: The toxicity of peptide conjugates to eukaryotic cells was determined as the ability to lyse erythrocytes (Table SB).
The hemolytic activity of the compounds was evaluated by determining hemoglobin release from erythrocyte suspensions of horse blood (5% vol/vol) (Oxoid) as previously described ([45]). Blood was centrifuged at 6000g for 5 min, washed three times with TRIS buffer (10 mM TRIS, 150 mM NaCl, pH 7.2) and diluted 10 times. Compounds were solubilized in TRIS buffer at 750, 500, 300, and 100 μM and mixed with horse erythrocytes (1:1 vol/vol). The mixture was incubated with continuous shaking for 1 h at 37°C. Then, the tubes were centrifuged at 3500g for 10 min, 80-μL aliquots of the supernatant were transferred to 100-well microplates (Bioscreen) and diluted with 80 μL water, and the absorbance measured at 540 nm (Bioscreen). […] The percentage of hemolysis (H) was calculated using the equation H = 100 × ([Op − Ob]/[Om − Ob]), where Op is the density for a given compound concentration, Ob is that for the buffer, and Om is that for the melittin positive control.

[9] = 100 μL infiltrated into mesophyll, lesion diameter 48 h after infiltration, at least three leaves, ± confidence interval (α = 0.05)

Compound	Size of the lesions in infiltrated tobacco leaves at 50 μM [1, 9]	Size of the lesions in infiltrated tobacco leaves at 250 μM [1, 9]	MIC, Ea [2]	MIC, Psa [3]	MIC, Pss [4]	MIC, Xap [5]	MIC, Xf [6]	MIC, Xav [7]	Percent hemolysis at 50 μM [8]	Percent hemolysis at 150 μM [8]	Percent hemolysis at 250 μM [8]	Percent hemolysis at 375 μM [8]	Size of the lesions in infiltrated tobacco leaves at 50 μM ([1]; in vivo)	Size of the lesions in infiltrated tobacco leaves at 150 μM ([1]; in vivo)	Size of the lesions in infiltrated tobacco leaves at 250 μM ([1]; in vivo)	Size of the lesions in infiltrated tobacco leaves at 150 μM [1, 9]
melittin [reference compound]	0.70 cm	2.17 cm	–	–	–	–	–	–	–	–	–	–	–	–	–	–
VWNQPVRGFKVYE-OH [Pep13, pathogen-associated molecular pattern (PAMP) from Phytophthora sojae; plant defense elicitor monomer]	–	–	> 50 µM	> 50 µM	> 50 µM	> 50 µM	> 50 µM	> 50 µM	0 ± 0.6%	0 ± 0.3%	2 ± 0.1%	0 ± 0.1%	0 ± 0 cm	0 ± 0 cm	0 ± 0 cm	–
FKLFKKILKVL-KKLFKKILKKL-NH2 [BP13-BP16, peptide conjugate, BP13 at N-terminus, BP16 at C-terminus]	0.52 ± 0.08 cm	1.40 ± 0.71 cm	> 50 µM	> 50 µM	> 50 µM	6.2 to 12.5 µM	6.2 to 12.5 µM	12.5 to 25 µM	86 ± 13.2%	86 ± 1.6%	87 ± 1.2%	93 ± 2.3%	–	–	–	1.08 ± 0.21 cm
CC[C@H](C)[C@H](NC(=O)[C@H](CCCCN)NC(=O)[C@H](CCCCN)NC(=O)[C@H](Cc1ccccc1)NC(=O)[C@H](CC(C)C)NC(=O)[C@H](CCCCN)NC(=O)[C@@H](N)CCCCN)C(=O)N[C@@H](CC(C)C)C(=O)N[C@@H](CCCCN)C(=O)N[C@@H](CCCCN)C(=O)N[C@@H](CC(C)C)C(N)=O [BP16, reference compound]	0.08 ± 0.11 cm	0.26 ± 0.08 cm	–	–	–	–	–	–	2 ± 1%	1 ± 0.6%	1 ± 0.4%	3 ± 3%	–	–	–	0.16 ± 0.16 cm
FKLFKKILKVL-KKLfKKILKYL-NH2 [BP13-BP143, peptide conjugate, BP13 at N-terminus, BP143 at C-terminus]	0.53 ± 0.18 cm	1.07 ± 0.37 cm	> 50 µM	> 50 µM	> 50 µM	6.2 to 12.5 µM	12.5 to 25 µM	1.6 to 3.1 µM	100 ± 0.6%	100 ± 3.7%	100 ± 3.2%	100 ± 10.6%	–	–	–	0.88 ± 0.15 cm
CCCC(=O)NCCCC[C@H](NC(=O)[C@H](CCCCN)NC(=O)[C@H](CC(C)C)NC(=O)[C@@H](NC(=O)[C@H](CCCCN)NC(=O)[C@H](CCCCN)NC(=O)[C@@H](Cc1ccccc1)NC(=O)[C@H](CC(C)C)NC(=O)[C@H](CCCCN)NC(=O)[C@H](CCCCN)NC(C)=O)[C@@H](C)CC)C(=O)N[C@@H](CC(C)C)C(N)=O [BP475, reference compound] (Ac-KKL[dF]KKILKK(Butyryl)L-NH2)	0.50 ± 0.10 cm	1.00 ± 0.10 cm	3.1 to 6.2 µM	1.6 to 3.1 µM	3.1 to 6.2 µM	0.8 to 1.6 µM	1.6 to 3.1 µM	1.6 to 3.1 µM	0 ± 0%	0 ± 0%	0 ± 0%	0 ± 0%	–	–	–	0.70 ± 0.20 cm
CC[C@H](C)[C@H](NC(=O)[C@H](CCCCN)NC(=O)[C@H](CCCCN)NC(=O)[C@H](Cc1ccccc1)NC(=O)[C@H](CC(C)C)NC(=O)[C@H](CCCCN)NC(=O)[C@@H](N)CCCCN)C(=O)N[C@@H](CC(C)C)C(=O)N[C@@H](CCCCN)C(=O)N[C@@H](Cc1ccc(O)cc1)C(=O)N[C@@H](CC(C)C)C(N)=O [BP100, reference compound]	0.40 ± 0.03 cm	1.20 ± 0.16 cm	–	–	–	–	–	–	4 ± 0.5%	7 ± 2%	6 ± 0.3%	11 ± 0.9%	–	–	–	–
CC[C@H](C)[C@H](NC(=O)[C@H](CCCCN)NC(=O)[C@H](CCCCN)NC(=O)[C@@H](Cc1ccccc1)NC(=O)[C@H](CC(C)C)NC(=O)[C@H](CCCCN)NC(=O)[C@@H](N)CCCCN)C(=O)N[C@@H](CC(C)C)C(=O)N[C@@H](CCCCN)C(=O)N[C@@H](Cc1ccc(O)cc1)C(=O)N[C@@H](CC(C)C)C(N)=O [BP143, reference compound]	0.10 ± 0.12 cm	0.65 ± 0.11 cm	–	–	–	–	–	–	3 ± 0.6%	4 ± 0.6%	6 ± 0.3%	7 ± 0.3%	–	–	–	0.37 ± 0.15 cm
KKVVFWVKFK-NH2 [KSL-W, reference compound]	0 ± 0 cm	0.62 ± 0.45 cm	–	–	–	–	–	–	4 ± 1%	5 ± 0.2%	6 ± 1%	20 ± 2%	–	–	–	0.37 ± 0.97 cm
